Assay results as given in PubChem BioAssay (NCI).
Where “and” joins values, the source holds several entries; their conditions need not be identical. Equal entries are not always repeated.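 All cell lines were grown in 96-well plates and treated with compound for 48 hours. GI50 is the concentration that inhibits growth by half. TGI is the concentration that stops growth completely.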

Columns and labels:
Assay in all cases: NCI tumour cell line growth inhibition, 48 h
HCT-116 colon = system: HCT-116 colon
HS 578T breast = system: HS 578T breast
NCI-H226 lung = system: NCI-H226 lung
SF-295 CNS = system: SF-295 CNS
OVCAR-3 ovarian = system: OVCAR-3 ovarian
OVCAR-4 ovarian = system: OVCAR-4 ovarian
NCI-H522 lung = system: NCI-H522 lung
BT-549 breast = system: BT-549 breast
NCI-H23 lung = system: NCI-H23 lung
NCI-H460 lung = system: NCI-H460 lung

Row | SMILES | GI50 (HCT-116 colon) | TGI (HCT-116 colon) [µM] | GI50 (HS 578T breast) | TGI (HS 578T breast) [µM] | GI50 (NCI-H226 lung) [µM] | TGI (NCI-H226 lung) [µM] | GI50 (SF-295 CNS) | TGI (SF-295 CNS) [µM] | GI50 (OVCAR-3 ovarian) | TGI (OVCAR-3 ovarian) | GI50 (OVCAR-4 ovarian) | TGI (OVCAR-4 ovarian) [µM] | GI50 (NCI-H522 lung) | TGI (NCI-H522 lung) | GI50 (BT-549 breast) | TGI (BT-549 breast) | GI50 (NCI-H23 lung) | TGI (NCI-H23 lung) [µM] | GI50 (NCI-H460 lung) | TGI (NCI-H460 lung) [µM]
1 | Cc1cnc(C(=O)NNc2nc3sc4c(c3c(=O)[nH]2)C(C)CCC4)cn1 (stereo not given) | 0.672 µM | 17 | 4 µM | 84.4 | 1.7 | 12.3 | 1.08 µM | 14.6 | 0.506 µM | 17.1 µM | 0.449 µM | 12.6 | 2.97 µM | > 100 µM | 2.08 µM | > 100 µM | 2.25 µM | 43 | 0.545 µM | 12.9
2 | CC[C@H](C)[C@H](NC(=O)[C@H]1CCCCN1C)C(=O)N(C)[C@H](C[C@@H](OC(C)=O)c1nc(C(=O)NC23CC(C(=O)OC)(C2)C3)cs1)C(C)C | 0.000878 µM and 0.00325 µM | > 32.5 | 0.000388 µM and 0.00325 µM | > 32.5 | 0.133 | 9.18 | 0.00128 µM and 0.00325 µM |  | 0.000256 µM and < 0.00325 µM | 0.0158 µM and < 0.00325 µM | 0.0424 µM and 0.0727 µM | > 32.5 | 0.000156 µM and < 0.00325 µM | 0.000901 µM and < 0.00325 µM | 0.00048 µM and 0.00325 µM | 0.0253 µM and 0.0318 µM | 0.00511 µM and 0.00325 µM | > 32.5 | 0.0007 µM and 0.00325 µM | > 32.5
3 | CC(=O)Oc1c(C(=O)[O-])cc(C(C)C)cc1C(C)C.CC(=O)Oc1c(C(=O)[O-])cc(C(C)C)cc1C(C)C.CC(=O)Oc1c(C(=O)[O-])cc(C(C)C)cc1C(C)C.CC(=O)Oc1c(C(=O)[O-])cc(C(C)C)cc1C(C)C.[Cu+2].[Cu+2] | 28.7 µM | > 100 | 50.5 µM | > 100 | 69.3 | > 100 | 24.4 µM | 70.5 | 27.3 µM | 65.9 µM | 42.9 µM | 97.1 | 18.5 µM | 33.3 µM | 16.7 µM | 38.5 µM | 20.1 µM | 52.7 | 34.8 µM | > 100
4 | COc1ccc(-c2nc3ccc(Cc4ccc5nc(-c6ccc(OC)cc6)[nH]c5c4)cc3[nH]2)cc1 | 0.0339 µM | 0.14 | 0.0334 µM | 2.52 | 0.475 | 2.56 | 0.0176 µM | 0.364 | 0.0217 µM | 0.0503 µM | 0.189 µM | 2.14 | 0.0171 µM | 0.0535 µM | 0.231 µM | 2.54 µM | 0.0516 µM | 2.81 | 0.0335 µM | 0.122
5 | CCCCS(=O)c1sc2nc(-c3cccs3)cc(-c3ccccc3)c2c1N (stereo not given) | 12.3 µM | > 100 | 18.9 µM | > 100 | 17.8 | > 100 | 9.88 µM | > 100 | 14.3 µM | > 100 µM | 13.5 µM | > 100 | 17.3 µM | > 87.8 µM | 9.24 µM | 67.9 µM | 19 µM | > 100 | 13 µM | > 96.8
6 | CN(C)c1ccc(-c2cc(-c3ccc(Nc4nc(Nc5ccc(Cl)cc5)nc(Nc5ccc(Cl)cc5)n4)cc3)nc(N)c2C#N)cc1 | 4.99 µM | > 100 | 3.94 µM | 59.3 | 3.58 | 24.4 | 13.9 µM | > 100 | 13.6 µM | 92 µM | 9.86 µM | > 100 | 48.4 µM | > 100 µM | 71.2 µM | > 100 µM | 30.5 µM | > 100 | 15.4 µM | > 100
7 | CCCCCCCCCCCC[C@@H](O)[C@H]1CC[C@H]([C@H](O)CC[C@H](O)[C@@H]2CC[C@@H](CCCCCCCC3=C[C@H](C)OC3=O)O2)O1 | 1.7 µM | > 50 | > 50 µM | > 50 |  | > 50 | 2.4 µM | > 50 | 2.78 µM | > 50 µM |  | > 50 |  | > 50 µM | 0.00376 µM |  | 0.164 µM | > 50 | > 50 µM | > 50
8 | CCCCCCCCCCCCCCNC(=O)Nc1ccc(Cl)c(Cl)c1 | 2.37 µM | > 23.3 | 3.14 µM | 15 | 3.21 | > 100 | 2.6 µM | > 24.8 | 2.47 µM | 6.31 µM | 2.79 µM | > 100 | 1.66 µM | 5.75 µM | 1.87 µM | 6.16 µM | 2.86 µM | 26.3 | 3.4 µM | > 100
9 | O=C(O)CN(CCN(CC(=O)O)CC(=O)O)CC(=O)O.[Mn+2] | > 100 µM | > 100 | > 100 µM | > 100 | > 100 | > 100 | > 100 µM | > 100 | > 100 µM | > 100 µM | > 100 µM | > 100 | > 100 µM | > 100 µM | > 100 µM | > 100 µM | > 100 µM | > 100 | > 100 µM | > 100
10 | COCCOC1=C(Cl)C(=O)c2ccccc2C1=O | 1.82 µM | 3.58 | 2.94 µM | 12.7 | 4.18 | 15.8 | 4.42 µM | 15.9 | 1.66 µM | 3.06 µM | 2.17 µM | 4.68 | 1.47 µM | 2.9 µM | 3.2 µM | 10.6 µM | 3.24 µM | 13.5 | 3.34 µM | 17.3
11 | Cc1noc(NC(=O)Nc2ccccc2F)c1C#N |  | > 43 |  | > 56.4 |  | > 100 |  | > 100 |  | > 100 µM |  | > 100 |  | > 34.7 µM |  | > 100 µM |  | > 100 |  | > 34.2
12 | OCCCCC#Cc1ccccc1C#Cc1cccc(C(F)(F)F)c1 | 20.9 µM | 49.8 | 29.7 µM | 71.3 | 18.3 | 34 | 16.5 µM | 30.9 | 16.8 µM | 31.6 µM | 14 µM | 28.1 | 16.6 µM | 33.6 µM | 16.4 µM | 30.7 µM | 16.4 µM | 31.5 | 18.4 µM | 40.6
